Assay results published in patent US20040023884A1, “Biologically active peptides from functional domains of bactericidal/permeability-increasing protein and uses thereof” (priority 1993, published 2004).
≈ marks a conversion by molar mass, not a printed value. Square brackets hold non-standard residues; d marks the D form. Peptide text beside a SMILES is read from it. 1Nal = N[C@@H](Cc1cccc2ccccc12)C(=O)O

Assays:
Candida albicans = type: cell-based
[1] = test system: E. coli 0111:B4 (smooth) bacteria; assay: Radial diffusion bactericidal assay, E. coli 0111:B4; type: cell-based; details: radial diffusion; PROBIT analysis; E. coli O111:B4 (smooth)
Staphylococcus aureus = assay: Radial diffusion bactericidal assay, Staphylococcus aureus; type: cell-based; details: radial diffusion; PROBIT analysis; S. aureus
[2] = test system: rough mutant E. coli J5 bacteria; assay: Radial diffusion bactericidal assay, E. coli J5; type: cell-based; details: radial diffusion; PROBIT analysis; E. coli J5 (rough)
Description: BPI proteolytic fragments produced according to Example 1 were screened for bactericidal effects using rough mutant E. coli J5 bacteria in a radial diffusion assay. Specifically, an overnight culture of E. coli J5 was diluted 1:50 into fresh tryptic soy broth and incubated for 3 hours at 37° C. to attain log phase growth of the culture. Bacteria were then pelleted at 3,000 rpm for 5 minutes in a Sorvall RT6000B centrifuge (Sorvall Instruments, Newton, Conn.). 5 mL of 10 mM sodium phosphate buffer (pH 7.4) was added and the preparation was re-pelleted. […] The bacteria were diluted to 4×10^6 CFU/mL in 10 mL of molten underlayer agarose (at approximately 45° C.) and inverted repeatedly to mix in 15 mL polypropylene tubes conventionally used for this purpose.
The entire contents of such tubes were then poured into a level square petri dish and distributed evenly by rocking the dish side-to-side. […] A series of wells were then punched into the hardened agarose using a sterile 3 mm punch attached to a vacuum apparatus. The punch was sterilized with 100% alcohol and allowed to air dry prior to use to avoid contaminating the bacterial culture.
5 or 10 μL of each of the BPI fragments were carefully pipetted into each well. As a negative control, dilution buffer (pH 8.3) was added to a separate well, and rBPI23 at concentrations of 5 μg/mL and 1 μg/mL were also added as positive controls. Each plate was incubated at 37° C. for 3 hours, and then 10 mL of molten overlayer agarose (at approximately 45° C.) was added into the level petri dish, allowed to harden and incubated overnight at 37° C. […] The bacterial zones were measured with a micrometer.

[3] = 3H-heparin binding assay (affinity and capacity); details: for Heparin Capacity: heparin bound at saturation; for Kd: read-out: Heparin Affinity
Description: Briefly, each fragment was added to wells of a 96-well microtiter plate having a polyvinylidene difluoride membrane (Immunobilon-P, Millipore, Bedford, Mass.) disposed at the bottom of the wells. […] Positive control wells contained varying amounts of rBPI23. […] DuPont-NEN, Wilmington, Del.) were made in the blocking buffer and incubated in the BPI peptide-containing wells for one hour at 4° C. The unbound heparin was aspirated and the wells were washed three times with blocking buffer, dried and removed for quantitation in a liquid scintillation counter (Model 1217, LKB, Gaithersburg, Md.). Although BSA in the blocking buffer did show a low affinity and capacity to bind heparin, this was considered physiologically irrelevant and the background was routinely subtracted from the test compound signal.

Compound | MIC C. alb (Candida albicans) | pmol added to well to achieve a 30 mm^2 bactericidal zone, E. coli O111:B4 [1] | pmol added to well to achieve a 30 mm^2 bactericidal zone, S. aureus (Staphylococcus aureus) | pmol added to well to achieve a 30 mm^2 bactericidal zone, E. coli J5 [2] | Heparin Capacity [3] | Kd [3] | Heparin Affinity [3]
CC[C@H](C)[C@H](NC(=O)[C@H](CC(C)C)NC(=O)[C@H](Cc1c[nH]c2ccccc12)NC(=O)CNC(=O)[C@@H](NC(=O)[C@H](CCCCN)NC(=O)[C@H](CO)NC(=O)[C@@H](N)CCCCN)C(C)C)C(=O)N[C@@H](CCC(N)=O)C(=O)N[C@@H](CC(C)C)C(=O)N[C@@H](Cc1ccccc1)C(=O)N[C@@H](Cc1cccc2ccccc12)C(=O)N[C@@H](CCCCN)C(=O)N[C@@H](Cc1cccc2ccccc12)C(=O)O [BPI.146] (H-KSKVGWLIQLF[1Nal]K[1Nal]-OH; N-terminus and C-terminus assumed) | >50.00 mg/L | b (no detectable activity up to 5 μg/well) | b (no detectable activity up to 5 μg/well) | b (no detectable activity up to 5 μg/well) | – | – | –
CC[C@H](C)[C@H](NC(=O)[C@H](CC(C)C)NC(=O)[C@H](Cc1cccc2ccccc12)NC(=O)CNC(=O)[C@@H](NC(=O)[C@H](CCCCN)NC(=O)[C@H](CO)NC(=O)[C@@H](N)CCCCN)C(C)C)C(=O)N[C@@H](CCC(N)=O)C(=O)N[C@@H](CC(C)C)C(=O)N[C@@H](Cc1ccccc1)C(=O)N[C@@H](Cc1cccc2ccccc12)C(=O)N[C@@H](CCCCN)C(=O)N[C@@H](CCCCN)C(=O)O [BPI.148, KSKVGAβ-(1-naphthyl)LIQLFAβ-(1-naphthyl)KK] (H-KSKVG[1Nal]LIQLF[1Nal]KK-OH; N-terminus and C-terminus assumed) | 50.00 mg/L (≈ 28 µM) | b (no detectable activity up to 5 μg/well) | b (no detectable activity up to 5 μg/well) | 4,206.57 pmol | – | – | –
CC(C)C[C@H](NC(=O)[C@H](Cc1ccccc1)NC(=O)[C@H](CCCNC(=N)N)NC(=O)[C@H](CCCCN)NC(=O)[C@H](CCC(N)=O)NC(=O)[C@H](C)NC(=O)[C@H](CCCCN)NC(=O)[C@H](Cc1c[nH]c2ccccc12)NC(=O)[C@H](CCCCN)NC(=O)[C@H](CCCCN)NC(=O)[C@H](CC(C)C)NC(=O)[C@H](Cc1ccccc1)NC(=O)[C@H](CCCNC(=N)N)NC(=O)[C@H](Cc1cccc2ccccc12)NC(=O)[C@H](Cc1cccc2ccccc12)NC(=O)[C@H](C)NC(=O)[C@H](CCCCN)NC(=O)[C@H](Cc1c[nH]c2ccccc12)NC(=O)[C@@H](N)CCCCN)C(=O)N[C@@H](CCCCN)C(=O)O [BPI.154] (H-KWKA[1Nal][1Nal]RFLKKWKAQKRFLK-OH; N-terminus and C-terminus assumed) | >100.00 mg/L | 2,977.76 pmol | 30,052,224.71 pmol | 197.00 pmol | – | – | –
CC(C)C[C@H](NC(=O)[C@H](Cc1ccccc1)NC(=O)[C@H](CCCNC(=N)N)NC(=O)[C@H](Cc1cccc2ccccc12)NC(=O)[C@H](Cc1cccc2ccccc12)NC(=O)[C@H](C)NC(=O)[C@H](CCCCN)NC(=O)[C@H](Cc1c[nH]c2ccccc12)NC(=O)[C@H](CCCCN)NC(=O)[C@H](CCCCN)NC(=O)[C@H](CC(C)C)NC(=O)[C@H](Cc1ccccc1)NC(=O)[C@H](CCCNC(=N)N)NC(=O)[C@H](Cc1cccc2ccccc12)NC(=O)[C@H](Cc1cccc2ccccc12)NC(=O)[C@H](C)NC(=O)[C@H](CCCCN)NC(=O)[C@H](Cc1c[nH]c2ccccc12)NC(=O)[C@@H](N)CCCCN)C(=O)N[C@@H](CCCCN)C(=O)O [BPI.156] (H-KWKA[1Nal][1Nal]RFLKKWKA[1Nal][1Nal]RFLK-OH; N-terminus and C-terminus assumed) | >100.00 mg/L | – | – | – | – | – | –
CC[C@H](C)[C@H](N)C(=O)N[C@@H](CCCCN)C(=O)N[C@H](C(=O)N[C@@H](CO)C(=O)NCC(=O)N[C@@H](CCCCN)C(=O)N[C@@H](Cc1c[nH]c2ccccc12)C(=O)N[C@@H](CCCCN)C(=O)N[C@@H](C)C(=O)N[C@@H](Cc1cccc2ccccc12)C(=O)N[C@@H](Cc1cccc2ccccc12)C(=O)N[C@@H](CCCNC(=N)N)C(=O)N[C@@H](Cc1ccccc1)C(=O)N[C@@H](CC(C)C)C(=O)N[C@@H](CCCCN)C(=O)N[C@@H](CCCCN)C(=O)N[C@@H](CO)C(=O)N[C@@H](CCCCN)C(=O)N[C@H](C(=O)NCC(=O)N[C@@H](Cc1c[nH]c2ccccc12)C(=O)N[C@@H](CC(C)C)C(=O)N[C@H](C(=O)N[C@@H](CCC(N)=O)C(=O)N[C@@H](CC(C)C)C(=O)N[C@@H](Cc1ccccc1)C(=O)N[C@@H](Cc1c[nH]cn1)C(=O)N[C@@H](CCCCN)C(=O)N[C@@H](CCCCN)C(=O)O)[C@@H](C)CC)C(C)C)[C@@H](C)CC [BPI.158] (H-IKISGKWKA[1Nal][1Nal]RFLKKSKVGWLIQLFHKK-OH; N-terminus and C-terminus assumed) | >100.00 mg/L | – | – | – | – | – | –
IKISGKWKAKQRFLK [BPI.56] | – | b (no detectable activity up to 5 μg/well) | b (no detectable activity up to 5 μg/well) | 1,387.00 pmol | 135.5 ng | 0.115 µM | –
IKISGKWKAQKRAβ-(3-pyridyl)LK [BPI.72] | – | b (no detectable activity up to 5 μg/well) | b (no detectable activity up to 5 μg/well) | 2,925.67 pmol | 102.8 ng | 0.145 µM | –
IKKRAISFLGKKWQK [BPI.75] | – | b (no detectable activity up to 5 μg/well) | 9,508.60 pmol | 2,708.40 pmol | 119.8 ng | 0.096 µM | –
KSKVKWLIKLFFKFKSKVKWLIKLFFKF [BPI.101] | – | 3,631.70 pmol | 4,388.20 pmol | 1,329.30 pmol | 210.9 ng | 1.91 µM | –
KSKVKWLIKLFHKK [BPI.100] | – | 7,342.90 pmol | b (no detectable activity up to 5 μg/well) | 407.74 pmol | 314.0 ng | 2.93 µM | –
KWKAQWRFLKKWKAQWRFLKKWKAQWRFLK [BPI.99] | – | 60,037.52 pmol | 37,942,676.00 pmol | 722.90 pmol | 971.4 ng | 9.1 µM | –
QQGTAALQKELKRIK [BPI.1] | – | b (no detectable activity up to 5 μg/well) | b (no detectable activity up to 5 μg/well) | b (no detectable activity up to 5 μg/well) | no binding | – | no binding
